# Test results as given in publication PMC10009787 (ACS Medicinal Chemistry Letters, 2023).
# Where “and” joins values, the source holds several entries; their conditions need not be identical. Equal entries are not always repeated. Where two headings read alike, the source gives them in different places.
# What was measured:
# [1] = molecular target: FLT3 (Homo sapiens, UniProt P36888); experiment: SelectScreen kinase profiling; format: biochemical; details: average of duplicate
# [2] = molecular target: ABL1 (Homo sapiens, UniProt P00519); experiment: SelectScreen kinase profiling; format: biochemical; details: average of duplicate
# [3] = molecular target: T1, BMX (Homo sapiens, UniProt P51813); experiment: SelectScreen kinase profiling / Z′-Lyte kinase assay
# T1 sequence (P51813 1-675): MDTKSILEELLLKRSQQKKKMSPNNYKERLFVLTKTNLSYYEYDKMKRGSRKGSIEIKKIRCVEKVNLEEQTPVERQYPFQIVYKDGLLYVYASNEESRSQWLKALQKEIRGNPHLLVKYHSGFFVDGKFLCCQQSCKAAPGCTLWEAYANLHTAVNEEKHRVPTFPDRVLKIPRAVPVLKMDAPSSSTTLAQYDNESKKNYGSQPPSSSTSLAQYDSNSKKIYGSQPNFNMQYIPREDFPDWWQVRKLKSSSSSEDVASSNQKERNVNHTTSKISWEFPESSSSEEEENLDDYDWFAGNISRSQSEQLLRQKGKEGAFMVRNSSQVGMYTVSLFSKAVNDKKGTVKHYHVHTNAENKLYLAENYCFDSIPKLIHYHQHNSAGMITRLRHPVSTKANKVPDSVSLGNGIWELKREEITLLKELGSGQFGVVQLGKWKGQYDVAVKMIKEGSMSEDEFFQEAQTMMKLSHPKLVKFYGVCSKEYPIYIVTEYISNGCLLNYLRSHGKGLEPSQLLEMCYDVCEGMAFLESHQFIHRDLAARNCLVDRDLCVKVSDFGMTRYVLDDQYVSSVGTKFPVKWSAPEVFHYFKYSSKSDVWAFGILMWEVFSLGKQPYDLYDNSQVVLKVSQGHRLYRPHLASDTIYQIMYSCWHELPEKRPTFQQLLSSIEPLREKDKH
# [4] = molecular target: FGFR3 (Homo sapiens, UniProt P22607); experiment: SelectScreen kinase profiling; format: biochemical; details: average of duplicate
# [5] = molecular target: RET M918T (Homo sapiens, UniProt P07949, M918T); experiment: SelectScreen kinase profiling; format: biochemical; details: average of duplicate
# [6] = molecular target: FGR (Homo sapiens, UniProt P09769); experiment: SelectScreen kinase profiling; format: biochemical; details: average of duplicate
# Chain of FGR (P09769 whole entry): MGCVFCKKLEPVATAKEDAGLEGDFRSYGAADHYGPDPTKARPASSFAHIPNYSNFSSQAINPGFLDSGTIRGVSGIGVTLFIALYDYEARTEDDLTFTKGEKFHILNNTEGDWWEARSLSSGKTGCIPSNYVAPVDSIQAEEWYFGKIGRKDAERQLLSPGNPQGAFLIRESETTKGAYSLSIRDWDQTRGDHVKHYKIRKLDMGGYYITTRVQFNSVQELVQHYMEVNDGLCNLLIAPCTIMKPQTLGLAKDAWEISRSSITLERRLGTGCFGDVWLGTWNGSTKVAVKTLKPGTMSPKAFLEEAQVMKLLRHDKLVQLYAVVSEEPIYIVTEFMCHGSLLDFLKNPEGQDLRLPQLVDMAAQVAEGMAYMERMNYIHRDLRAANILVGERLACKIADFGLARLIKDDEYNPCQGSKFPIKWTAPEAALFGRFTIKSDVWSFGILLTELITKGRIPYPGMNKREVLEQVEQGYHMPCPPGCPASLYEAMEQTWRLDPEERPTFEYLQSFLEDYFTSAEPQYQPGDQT
# Chain of FGFR3 (P22607 23-806): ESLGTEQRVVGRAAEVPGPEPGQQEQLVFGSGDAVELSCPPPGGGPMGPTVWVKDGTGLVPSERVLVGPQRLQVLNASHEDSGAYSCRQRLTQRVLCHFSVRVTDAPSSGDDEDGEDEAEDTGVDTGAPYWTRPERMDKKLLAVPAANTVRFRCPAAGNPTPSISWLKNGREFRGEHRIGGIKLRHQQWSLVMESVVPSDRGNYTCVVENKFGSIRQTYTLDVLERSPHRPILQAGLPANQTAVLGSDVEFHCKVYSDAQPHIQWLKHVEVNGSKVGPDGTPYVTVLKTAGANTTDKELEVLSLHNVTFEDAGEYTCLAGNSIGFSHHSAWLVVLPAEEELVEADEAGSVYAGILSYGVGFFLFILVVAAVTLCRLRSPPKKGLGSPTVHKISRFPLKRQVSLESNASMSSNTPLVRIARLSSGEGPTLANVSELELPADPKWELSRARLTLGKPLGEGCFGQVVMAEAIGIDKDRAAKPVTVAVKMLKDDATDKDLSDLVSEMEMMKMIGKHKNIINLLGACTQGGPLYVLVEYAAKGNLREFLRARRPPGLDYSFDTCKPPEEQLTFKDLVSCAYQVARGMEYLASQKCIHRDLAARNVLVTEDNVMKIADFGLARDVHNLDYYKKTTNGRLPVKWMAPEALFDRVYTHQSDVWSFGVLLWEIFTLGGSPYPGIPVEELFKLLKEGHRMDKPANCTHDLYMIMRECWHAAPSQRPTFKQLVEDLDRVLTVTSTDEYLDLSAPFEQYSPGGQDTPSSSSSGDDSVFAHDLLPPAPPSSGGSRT
# Chain of FLT3 (P36888 27-993): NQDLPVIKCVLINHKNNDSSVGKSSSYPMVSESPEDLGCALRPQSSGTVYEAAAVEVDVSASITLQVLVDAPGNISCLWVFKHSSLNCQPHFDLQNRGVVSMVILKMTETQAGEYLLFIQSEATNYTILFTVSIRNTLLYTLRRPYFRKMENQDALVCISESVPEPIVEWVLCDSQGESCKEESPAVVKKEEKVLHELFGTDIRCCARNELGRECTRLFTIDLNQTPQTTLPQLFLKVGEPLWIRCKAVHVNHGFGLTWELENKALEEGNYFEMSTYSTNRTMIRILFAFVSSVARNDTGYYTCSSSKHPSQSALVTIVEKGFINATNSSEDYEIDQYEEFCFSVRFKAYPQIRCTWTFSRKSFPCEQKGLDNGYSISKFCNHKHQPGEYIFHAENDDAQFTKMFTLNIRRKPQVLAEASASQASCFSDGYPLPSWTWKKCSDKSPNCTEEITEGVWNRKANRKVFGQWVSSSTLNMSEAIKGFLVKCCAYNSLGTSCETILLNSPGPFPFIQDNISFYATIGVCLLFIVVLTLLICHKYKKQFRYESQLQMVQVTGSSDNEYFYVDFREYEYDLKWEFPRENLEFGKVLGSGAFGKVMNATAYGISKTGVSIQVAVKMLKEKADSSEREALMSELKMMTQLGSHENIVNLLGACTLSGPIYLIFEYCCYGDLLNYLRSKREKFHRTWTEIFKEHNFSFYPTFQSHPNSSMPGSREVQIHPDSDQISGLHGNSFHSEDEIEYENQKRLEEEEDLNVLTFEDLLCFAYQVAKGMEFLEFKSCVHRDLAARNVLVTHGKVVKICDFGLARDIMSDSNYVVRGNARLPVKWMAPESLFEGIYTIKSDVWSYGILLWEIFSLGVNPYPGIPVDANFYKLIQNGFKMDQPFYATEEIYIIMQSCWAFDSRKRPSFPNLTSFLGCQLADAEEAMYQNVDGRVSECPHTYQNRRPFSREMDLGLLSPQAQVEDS
# Chain of RET M918T (P07949 658-1114 M918T limits assumed): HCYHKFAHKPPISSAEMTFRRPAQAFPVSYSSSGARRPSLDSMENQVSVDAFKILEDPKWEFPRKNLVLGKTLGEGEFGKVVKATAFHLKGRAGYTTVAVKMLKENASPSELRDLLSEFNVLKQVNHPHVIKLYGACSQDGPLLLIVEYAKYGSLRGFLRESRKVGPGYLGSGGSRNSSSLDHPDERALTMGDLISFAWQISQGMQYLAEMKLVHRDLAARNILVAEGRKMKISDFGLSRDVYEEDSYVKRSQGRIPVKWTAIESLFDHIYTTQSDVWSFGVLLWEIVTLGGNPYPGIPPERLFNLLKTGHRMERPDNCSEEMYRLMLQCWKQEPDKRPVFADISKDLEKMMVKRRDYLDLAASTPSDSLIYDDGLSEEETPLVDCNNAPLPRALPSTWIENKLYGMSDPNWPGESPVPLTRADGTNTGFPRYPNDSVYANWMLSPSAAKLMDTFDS
# Chain of ABL1 (P00519 whole entry): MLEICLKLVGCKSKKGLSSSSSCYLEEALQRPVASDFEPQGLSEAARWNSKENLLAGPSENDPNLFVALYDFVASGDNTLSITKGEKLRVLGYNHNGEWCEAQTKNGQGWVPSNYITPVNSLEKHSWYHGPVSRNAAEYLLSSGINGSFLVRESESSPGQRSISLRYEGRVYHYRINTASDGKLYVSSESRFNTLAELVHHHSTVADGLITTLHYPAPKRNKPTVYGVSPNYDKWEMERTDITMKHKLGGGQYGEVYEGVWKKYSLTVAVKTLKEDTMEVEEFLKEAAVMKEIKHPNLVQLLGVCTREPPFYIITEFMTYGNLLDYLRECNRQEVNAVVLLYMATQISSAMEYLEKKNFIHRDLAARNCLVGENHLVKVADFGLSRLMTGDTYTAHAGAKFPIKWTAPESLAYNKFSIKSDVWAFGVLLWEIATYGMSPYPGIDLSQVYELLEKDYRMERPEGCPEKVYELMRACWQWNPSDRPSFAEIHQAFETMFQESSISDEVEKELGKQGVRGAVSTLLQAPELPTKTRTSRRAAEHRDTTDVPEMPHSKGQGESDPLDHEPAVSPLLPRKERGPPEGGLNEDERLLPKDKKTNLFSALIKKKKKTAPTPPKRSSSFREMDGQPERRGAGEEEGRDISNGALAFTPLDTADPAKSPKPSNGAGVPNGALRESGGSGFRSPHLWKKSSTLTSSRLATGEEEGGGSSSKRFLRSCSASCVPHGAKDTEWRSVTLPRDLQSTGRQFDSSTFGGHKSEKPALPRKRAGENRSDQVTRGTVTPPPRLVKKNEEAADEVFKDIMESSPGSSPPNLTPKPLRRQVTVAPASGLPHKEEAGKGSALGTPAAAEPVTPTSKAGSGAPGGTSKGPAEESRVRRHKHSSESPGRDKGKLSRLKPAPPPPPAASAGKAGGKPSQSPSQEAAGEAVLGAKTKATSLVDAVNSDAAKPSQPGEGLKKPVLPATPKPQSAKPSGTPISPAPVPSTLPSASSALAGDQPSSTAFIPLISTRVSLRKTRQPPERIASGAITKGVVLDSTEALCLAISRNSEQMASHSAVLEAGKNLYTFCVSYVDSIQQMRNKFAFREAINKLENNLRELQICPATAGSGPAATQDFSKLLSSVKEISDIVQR
smiles,measurement,setting,value
C=CC(=O)N1CCCC(n2nc(-c3c(C)cc(Oc4ccccc4)cc3C)c3c(N)ncnc32)C1 (stereo in doubt) [Compound 3],inhibition at 1 µM,[1],13%
same,inhibition at 1 µM,[2],0%
same,inhibition at 1 µM,[3],94%
same,IC50,"[3]; BMX IC50, Z′-Lyte, [ATP] Km app, 1 h incubation, duplicate",5.7 nM and 5.67 nM
same,Hillslope,[3]; BMX IC50 curve,1.56
same,inhibition at 0.000495 µM,[3]; read-out: % Inhibition Point 1,6%
same,inhibition at 0.00152 µM,[3]; read-out: % Inhibition Point 1,16%
same,inhibition at 0.00457 µM,[3]; read-out: % Inhibition Point 1,48%
same,inhibition at 0.0137 µM,[3]; read-out: % Inhibition Point 1,78%
same,inhibition at 0.0412 µM,[3]; read-out: % Inhibition Point 1,94%
same,inhibition at 0.123 µM,[3]; read-out: % Inhibition Point 1,102%
same,inhibition at 0.37 µM,[3]; read-out: % Inhibition Point 1,101%
same,inhibition at 1.11 µM,[3]; read-out: % Inhibition Point 1,98%
same,inhibition at 3.33 µM,[3]; read-out: % Inhibition Point 1,99%
same,inhibition at 10 µM,[3]; read-out: % Inhibition Point 1,98%
same,inhibition at 0.000495 µM,[3]; read-out: % Inhibition Point 2,10%
same,inhibition at 0.00152 µM,[3]; read-out: % Inhibition Point 2,18%
same,inhibition at 0.00457 µM,[3]; read-out: % Inhibition Point 2,42%
same,inhibition at 0.0137 µM,[3]; read-out: % Inhibition Point 2,83%
same,inhibition at 0.0412 µM,[3]; read-out: % Inhibition Point 2,101%
same,inhibition at 0.123 µM,[3]; read-out: % Inhibition Point 2,97%
same,inhibition at 0.37 µM,[3]; read-out: % Inhibition Point 2,98%
same,inhibition at 1.11 µM,[3]; read-out: % Inhibition Point 2,102%
same,inhibition at 3.33 µM,[3]; read-out: % Inhibition Point 2,100%
same,inhibition at 10 µM,[3]; read-out: % Inhibition Point 2,102%
same,inhibition at 1 µM,[4],3%
same,inhibition at 1 µM,[5],6%
same,inhibition at 1 µM,[6],53%
